From EP4755888A1 (ILAb Co., Ltd., priority 2023, dated 2025)

Target: PD-1/PD-L1 (Homo sapiens, UniProt Q9NZQ7)
Assay: TR-FRET PD-1/PD-L1 binding inhibition at the molecular level (free proteins)
Conditions: Tag1-PD-L1 and Tag2-PD-1 proteins, twelve concentrations from 200 nM, 2 hours at room temperature, read-out: FRET assay (IC50)
Procedure, shortened: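 HTRF read-out at 665/620 nm after 2 h at room temperature. Detection used anti-Tag1 Eu cryptate plus anti-Tag2 XL665 antibodies. Tagged PD-L1 and PD-1 proteins were pre-mixed with compound across twelve […] 1:2 dilutions starting at 200 nM.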

PD-1/PD-L1, sequence (Q9NZQ7 19-238 limits assumed): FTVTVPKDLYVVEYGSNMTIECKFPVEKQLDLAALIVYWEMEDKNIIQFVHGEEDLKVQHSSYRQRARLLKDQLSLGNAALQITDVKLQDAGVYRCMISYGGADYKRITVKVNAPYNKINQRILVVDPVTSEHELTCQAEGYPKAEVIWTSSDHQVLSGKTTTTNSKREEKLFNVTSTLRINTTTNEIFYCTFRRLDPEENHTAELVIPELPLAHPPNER

IC50 [nM] | SMILES
< 10 | CN(C)[C@H]1CCCn2nc(C(=O)Nc3cccc(-c4cccc(NC(=O)c5cc6n(n5)CCC[C@@H]6N(C)C)c4Cl)c3Cl)cc21 [Compound 311, (4S,4'S)-N,N'-(2,2'-dichloro-[1,1'-biphenyl]-3,3'-diyl)bis(4-(dimethylamino)-4,5,6,7-tetrahydropyrazolo[1,5-a]pyridine-2-carboxamide)]
< 10 | CN[C@H]1CCCn2nc(C(=O)Nc3cccc(-c4cccc(NC(=O)c5cc6n(n5)CCC[C@@H]6NC)c4C)c3C)cc21 [Compound 312, (4S,4'S)-N,N'-(2,2'-dimethyl-[1,1'-biphenyl]-3,3'-diyl)bis(4-(methylamino)-4,5,6,7-tetrahydropyrazolo[1,5-a]pyridine-2-carboxamide)]
< 10 | CN(C)[C@H]1CCCn2nc(C(=O)Nc3cccc(-c4cccc(NC(=O)c5cc6n(n5)CCC[C@@H]6NCCO)c4Cl)c3Cl)cc21 [Compound 313, (S)-N-(2,2'-dichloro-3'-((S)-4-((2-hydroxyethyl)amino)-4,5,6,7-tetrahydropyrazolo[1,5-a]pyridine-2-carboxamido)-[1,1'-biphenyl]-3-yl)-4-(dimethylamino)-4,5,6,7-tetrahydropyrazolo[1,5-a]pyridine-2-carboxamide]
< 10 | CN(C)[C@H]1CCCn2nc(C(=O)Nc3cccc(-c4cccc(NC(=O)c5cc6n(n5)CCC[C@@H]6NCC(=O)O)c4Cl)c3Cl)cc21 [Compound 314, 2-(((S)-2-((2,2'-dichloro-3'-((S)-4-(dimethylamino)-4,5,6,7-tetrahydropyrazolo[1,5-a]pyridine-2-carboxamido)-[1,1'-biphenyl]-3-yl)carbamoyl)-4,5,6,7-tetrahydropyrazolo[1,5-a]pyridin-4-yl)amino)acetic acid]
< 10 | O=C(O)CN[C@H]1CCCn2nc(C(=O)Nc3cccc(-c4cccc(NC(=O)c5cc6n(n5)CCC[C@@H]6NCCO)c4Cl)c3Cl)cc21 [Compound 315, 2-(((S)-2-((2,2'-dichloro-3'-((S)-4-((2-hydroxyethyl)amino)-4,5,6,7-tetrahydropyrazolo[1,5-a]pyridine-2-carboxamido)-[1,1'-biphenyl]-3-yl)carbamoyl)-4,5,6,7-tetrahydropyrazolo[1,5-a]pyridin-4-yl)amino)acetic acid]
< 10 | O=C(Nc1cccc(-c2cccc(NC(=O)c3cc4n(n3)CCC[C@@H]4NCCO)c2Cl)c1Cl)c1cc2n(n1)CCC[C@@H]2NCCO [Compound 316, (4S,4'S)-N,N'-(2,2'-dichloro-[1,1'-biphenyl]-3,3'-diyl)bis(4-((2-hydroxyethyl)amino)-4,5,6,7-tetrahydropyrazolo[1,5-a]pyridine-2-carboxamide)]
10 to 100 | O=C(Nc1cccc(-c2cccc(Nc3nccc4cc(CN5CC[C@@H](O)C5)cnc34)c2Cl)c1Cl)c1cc2n(n1)CCCN2CCO [Compound 322, (R)-N-(2,2'-dichloro-3'-((3-((3-hydroxypyrrolidin-1-yl)methyl)-1,7-naphthyridin-8-yl)amino)-[1,1'-biphenyl]-3-yl)-4-(2-hydroxyethyl)-4,5,6,7-tetrahydropyrazolo[1,5-a]pyrimidine-2-carboxamide]
10 to 100 | O=C(Nc1cccc(-c2cccc(Nc3nccc4cc(CN5CC[C@@H](O)C5)cnc34)c2Cl)c1Cl)c1cc2n(n1)CCN(CCO)C2 [Compound 323, (R)-N-(2,2'-dichloro-3'-((3-((3-hydroxypyrrolidin-1-yl)methyl)-1,7-naphthyridin-8-yl)amino)-[1,1-biphenyl]-3-yl)-5-(2-hydroxyethyl)-4,5,6,7-tetrahydropyrazolo[1,5-a]pyrazine-2-carboxamide]
< 10 | O=C(O)CN1CCn2nc(C(=O)Nc3cccc(-c4cccc(Nc5nccc6cc(CN7CC[C@@H](O)C7)cnc56)c4Cl)c3Cl)cc2C1 [Compound 324, (R)-2-(2-((2,2'-dichloro-3'-((3-((3-hydroxypyrrolidin-1-yl)methyl)-1,7-naphthyridin-8-yl)amino)-[1,1'-biphenyl]-3-yl)carbamoyl)-6,7-dihydropyrazolo[1,5-a]pyrazin-5(4H)-yl)acetic acid]
< 10 | Cc1c(NC(=O)c2ccc(CN3CC[C@@H](O)C3)cn2)cccc1-c1cccc(NC(=O)c2cc3n(n2)CCN(CCO)C3)c1C [Compound 325, (R)-5-(2-hydroxyethyl)-N-(3'-(5-((3-hydroxypyrrolidin-1-yl)methyl)picolinamido)-2,2'-dimethyl-[1,1'-biphenyl]-3-yl)-4,5,6,7-tetrahydropyrazolo[1,5-a]pyrazine-2-carboxamide]
< 10 | Cc1c(NC(=O)c2ccc(CN3CC[C@@H](O)C3)cn2)cccc1-c1cccc(NC(=O)c2cc3n(n2)CCN(CC(=O)O)C3)c1C [Compound 326, (R)-2-(2-((3'-(5-((3-hydroxypyrrolidin-1-yl)methyl)picolinamido)-2,2'-dimethyl-[1,1'-biphenyl]-3-yl)carbamoyl)-6,7-dihydropyrazolo[1,5-a]pyrazin-5(4H)-yl)acetic acid]
< 10 | Cc1c(NC(=O)c2cc3n(n2)CCN(CCO)C3)cccc1-c1cccc(Nc2nc(C(F)F)nc3cc(CN4CC[C@@H](O)C4)cnc23)c1C [Compound 327, (R)-N-(3'-((2-(difluoromethyl)-7-((3-hydroxypyrrolidin-1-yl)methyl)pyrido[3,2-d]pyrimidin-4-yl)amino)-2,2'-dimethyl-[1,1'-biphenyl]-3-yl)-5-(2-hydroxyethyl)-4,5,6,7-tetrahydropyrazolo[1,5-a]pyrazine-2-carboxamide]
< 10 | Cc1c(NC(=O)c2cc3n(n2)CCN(CC(=O)O)C3)cccc1-c1cccc(Nc2nc(C(F)F)nc3cc(CN4CC[C@@H](O)C4)cnc23)c1C [Compound 328, (R)-2-(2-((3'-((2-(difluoromethyl)-7-((3-hydroxypyrrolidin-1-yl)methyl)pyrido[3,2-d]pyrimidin-4-yl)amino)-2,2'-dimethyl-[1,1'-biphenyl]-3-yl)carbamoyl)-6,7-dihydropyrazolo[1,5-a]pyrazin-5(4H)-yl)acetic acid]
10 to 100 | O=C(Nc1cccc(-c2cccc(Nc3nc(C(F)(F)F)nc4cccnc34)c2Cl)c1Cl)c1cc2n(n1)CCC[C@@H]2N1CC[C@@H](O)C1 [Compound 333, (S)-N-(2,2'-dichloro-3'-((2-(trifluoromethyl)pyrido[3,2-d]pyrimidin-4-yl)amino)-[1,1'-biphenyl]-3-yl)-4-((R)-3-hydroxypyrrolidin-1-yl)-4,5,6,7-tetrahydropyrazolo[1,5-a]pyridine-2-carboxamide]
10 to 100 | O=C(Nc1cccc(-c2cccc(Nc3nc(C(F)(F)F)nc4cccnc34)c2Cl)c1Cl)c1cc2n(n1)CCC[C@H]2N1CC[C@@H](O)C1 [Compound 334, (R)-N-(2,2'-dichloro-3'-((2-(trifluoromethyl)pyrido[3,2-d]pyrimidin-4-yl)amino)-[1,1'-biphenyl]-3-yl)-4-((R)-3-hydroxypyrrolidin-1-yl)-4,5,6,7-tetrahydropyrazolo[1,5-a]pyridine-2-carboxamide]
10 to 100 | COc1cc(/C(F)=C/c2cccc(-c3cccc(NC(=O)c4cc5n(n4)CCC[C@@H]5N4CC[C@@H](O)C4)c3Cl)c2Cl)ncc1CN1CC[C@@H](O)C1 [Compound 335, (S)-N-(2,2'-dichloro-3'-((Z)-2-fluoro-2-(5-(((R)-3-hydroxypyrrolidin-1-yl)methyl)-4-methoxypyridin-2-yl)vinyl)-[1,1'-biphenyl]-3-yl)-4-((R)-3-hydroxypyrrolidin-1-yl)-4,5,6,7-tetrahydropyrazolo[1,5-a]pyridine-2-carboxamide]
10 to 100 | O=C(Nc1cccc(-c2cccc(Nc3nc(C(F)(F)F)nc4cc(CN5CC[C@@H](O)C5)cnc34)c2Cl)c1Cl)c1cc2n(n1)CCC[C@@H]2N1CCC(C(=O)O)CC1 [Compound 336, 1-((S)-2-((2,2'-dichloro-3'-((7-(((R)-3-hydroxypyrrolidin-1-yl)methyl)-2-(trifluoromethyl)pyrido[3,2-d]pyrimidin-4-yl)amino)-[1,1'-biphenyl]-3-yl)carbamoyl)-4,5,6,7-tetrahydropyrazolo[1,5-a]pyridin-4-yl)piperidine-4-carboxylic acid]
10 to 100 | O=C(Nc1cccc(-c2cccc(Nc3nc(C(F)(F)F)nc4cc(CN5CC[C@@H](O)C5)cnc34)c2Cl)c1Cl)c1cc2n(n1)CCC[C@@H]2N1CC[C@@H](O)C1 [Compound 338, (S)-N-(2,2'-dichloro-3'-((7-(((R)-3-hydroxypyrrolidin-1-yl)methyl)-2-(trifluoromethyl)pyrido[3,2-d]pyrimidin-4-yl)amino)-[1,1'-biphenyl]-3-yl)-4-((R)-3-hydroxypyrrolidin-1-yl)-4,5,6,7-tetrahydropyrazolo[1,5-a]pyridine-2-carboxamide]
10 to 100 | O=C(Nc1cccc(-c2cccc(Nc3nc(C(F)(F)F)nc4cc(CN5CC[C@@H](O)C5)cnc34)c2Cl)c1Cl)c1cc2n(n1)CCC[C@H]2N1CC[C@@H](O)C1 [Compound 339, (R)-N-(2,2'-dichloro-3'-((7-(((R)-3-hydroxypyrrolidin-1-yl)methyl)-2-(trifluoromethyl)pyrido[3,2-d]pyrimidin-4-yl)amino)-[1,1'-biphenyl]-3-yl)-4-((R)-3-hydroxypyrrolidin-1-yl)-4,5,6,7-tetrahydropyrazolo[1,5-a]pyridine-2-carboxamide]

SMILES | IC50 [nM]
O=C(O)CN[C@H]1CCCn2nc(C(=O)Nc3cccc(-c4cccc(NC(=O)c5cc6n(n5)CCC[C@@H]6NCC(=O)O)c4Cl)c3Cl)cc21 [Compound 317, 2,2'-(((4S,4'S)-2,2'-(((2,2'-dichloro-[1,1'-biphenyl]-3,3'-diyl)bis(azanediyl))bis(carbonyl))bis(4,5,6,7-tetrahydropyrazolo[1,5-a]pyridine-4,2-diyl))bis(azanediyl))diacetic acid] | < 10
O=C(Nc1cccc(-c2cccc(Nc3nc(C(F)(F)F)nc4cc(CN5CC[C@@H](O)C5)cnc34)c2Cl)c1Cl)c1cc2n(n1)CCC[C@H]2N1CCC(C(=O)O)CC1 [Compound 337] | 10 to 100
